Measured values published in patent publication US20260262643A1, “HERBICIDAL BENZOXAZINES” (FMC CORPORATION, priority 2022, published 2026).

What was measured:
horseweed = assay: Test A postemergence; type: in vivo, Erigeron canadensis; conditions: postemergence, 10 days
Method in brief: (§1)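 Seeds in loam–sand blend received a directed preemergence soil spray of compound in non-phytotoxic solvent with surfactant; postemergence plants (2–10 cm, one- to two-leaf stage) were sprayed with the same formulation. After 10 days in greenhouse, injury was rated visually versus untreated controls, 0 (no effect) to 100 (complete control).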

goosegrass [1] = assay: Test A postemergence; type: in vivo, Eleusine indica; conditions: postemergence, 10 days
Method in brief: as §1

ragweed [2] = assay: Test A preemergence; type: in vivo, Ambrosia artemisiifolia
Method in brief: as §1

foxtail, giant [3] = assay: Test A preemergence; type: in vivo, Setaria faberi
Method in brief: as §1

rice = assay: Test B flooded paddy test; type: in vivo, Oryza sativa; conditions: 250 g ai/ha, Flood, 13 days, 0 to 100 scale (0 no effect, 100 complete control)
Method in brief: (§2)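 Visual scores from 0 (no effect) to 100 (complete kill) were assigned 13 days after treatment by comparison with controls. Seedlings had been treated at two leaves by adding compound to floodwater standing 3 cm deep, kept at that level in the greenhouse.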

wheat [4] = assay: Test A preemergence; type: in vivo, Triticum aestivum
Method in brief: as §1

ryegrass, Italian [5] = assay: Test A preemergence; type: in vivo, Lolium multiflorum
Method in brief: as §1

pigweed, palmer [6] = assay: Test A postemergence; type: in vivo, Amaranthus palmeri; conditions: postemergence, 10 days
Method in brief: as §1

corn [7] = assay: Test A postemergence; type: in vivo, Zea mays; conditions: postemergence, 10 days
Method in brief: as §1

oat, wild [8] = assay: Test A preemergence; type: in vivo, Avena fatua
Method in brief: as §1

blackgrass [9] = assay: Test A postemergence; type: in vivo, Alopecurus myosuroides; conditions: postemergence, 10 days
Method in brief: as §1

corn [10] = assay: Test A preemergence; type: in vivo, Zea mays
Method in brief: as §1

sedge, umbrella = assay: Test B flooded paddy test; type: in vivo, Cyperus difformis; conditions: 250 g ai/ha, Flood, 13 days, 0 to 100 scale (0 no effect, 100 complete control)
Method in brief: as §2

pigweed, palmer [11] = assay: Test A preemergence; type: in vivo, Amaranthus palmeri
Method in brief: as §1

barnyardgrass = assay: Test B flooded paddy test; type: in vivo, Echinochloa crus-galli; conditions: 250 g ai/ha, Flood, 13 days, 0 to 100 scale (0 no effect, 100 complete control)
Method in brief: as §2

goosegrass [12] = assay: Test A preemergence; type: in vivo, Eleusine indica
Method in brief: as §1

soybean [13] = assay: Test A preemergence; type: in vivo, Glycine max
Method in brief: as §1

blackgrass [14] = assay: Test A preemergence; type: in vivo, Alopecurus myosuroides
Method in brief: as §1

ducksalad = assay: Test B flooded paddy test; type: in vivo, Heteranthera limosa; conditions: 250 g ai/ha, Flood, 13 days, 0 to 100 scale (0 no effect, 100 complete control)
Method in brief: as §2

soybean [15] = assay: Test A postemergence; type: in vivo, Glycine max; conditions: postemergence, 10 days
Method in brief: as §1

wheat [16] = assay: Test A postemergence; type: in vivo, Triticum aestivum; conditions: postemergence, 10 days
Method in brief: as §1

oat, wild [17] = assay: Test A postemergence; type: in vivo, Avena fatua; conditions: postemergence, 10 days
Method in brief: as §1

kochia [18] = assay: Test A preemergence; type: in vivo, Bassia scoparia
Method in brief: as §1

ragweed [19] = assay: Test A postemergence; type: in vivo, Ambrosia artemisiifolia; conditions: postemergence, 10 days
Method in brief: as §1

foxtail, giant [20] = assay: Test A postemergence; type: in vivo, Setaria faberi; conditions: postemergence, 10 days
Method in brief: as §1

ryegrass, Italian [21] = assay: Test A postemergence; type: in vivo, Lolium multiflorum; conditions: postemergence, 10 days
Method in brief: as §1

kochia [22] = assay: Test A postemergence; type: in vivo, Bassia scoparia; conditions: postemergence, 10 days
Method in brief: as §1

[23] = 125 g ai/ha, 0 to 100 scale, 0 no effect, 100 complete control
[24] = 500 g ai/ha, visual injury, 0 to 100 scale (0 no effect, 100 complete control)
[25] = 125 g ai/ha, visual injury after 10 days, 0 to 100 scale, 0 is no effect, 100 is complete control
[26] = 500 g ai/ha, 0 to 100 scale (0 no effect, 100 complete control), 10 days

CCCCc1ncn(-c2cccc(C(=O)N3C[C@H](C)Oc4c(C)cccc43)c2)n1 [Compound 86]
Horseweed plant response rating (horseweed; [23]): 0
Plant response rating, Horseweed (horseweed; [24]): 0
Goosegrass plant response rating (goosegrass [1]; [23]): 10
Plant response rating, Goosegrass (goosegrass [1]; [24]): 50
Plant response rating, Ragweed (ragweed [2]; [25]): 0
Plant response rating, Ragweed (ragweed [2]; [26]): 0
Plant response rating, Foxtail, Giant (foxtail, giant [3]; [25]): 0
Plant response rating, Foxtail, Giant (foxtail, giant [3]; [26]): 70
Plant response rating, Rice (rice): 0
Plant response rating, Wheat (wheat [4]; [25]): 0
Plant response rating, Wheat (wheat [4]; [26]): 10
Plant response rating, Ryegrass, Italian (ryegrass, Italian [5]; [25]): 70
Plant response rating, Ryegrass, Italian (ryegrass, Italian [5]; [26]): 100
Pigweed, Palmer plant response rating (pigweed, palmer [6]; [23]): 20
Plant response rating, Pigweed, Palmer (pigweed, palmer [6]; [24]): 40
Corn plant response rating (corn [7]; [23]): 0
Plant response rating, Corn (corn [7]; [24]): 10
Plant response rating, Oat, Wild (oat, wild [8]; [25]): 0
Plant response rating, Oat, Wild (oat, wild [8]; [26]): 80
Blackgrass plant response rating (blackgrass [9]; [23]): 0
Plant response rating, Blackgrass (blackgrass [9]; [24]): 30
Plant response rating, Corn (corn [10]; [25]): 0
Plant response rating, Corn (corn [10]; [26]): 20
Plant response rating, Sedge, Umbrella (sedge, umbrella): 90
Plant response rating, Pigweed, Palmer (pigweed, palmer [11]; [25]): 20
Plant response rating, Pigweed, Palmer (pigweed, palmer [11]; [26]): 90
Plant response rating, Barnyardgrass (barnyardgrass): 0
Plant response rating, Goosegrass (goosegrass [12]; [25]): 60
Plant response rating, Goosegrass (goosegrass [12]; [26]): 90
Plant response rating, Soybean (soybean [13]; [25]): 0
Plant response rating, Soybean (soybean [13]; [26]): 0
Plant response rating, Blackgrass (blackgrass [14]; [25]): 0
Plant response rating, Blackgrass (blackgrass [14]; [26]): 30
Plant response rating, Ducksalad (ducksalad): 65
Soybean plant response rating (soybean [15]; [23]): 50
Plant response rating, Soybean (soybean [15]; [24]): 100
Wheat plant response rating (wheat [16]; [23]): 10
Plant response rating, Wheat (wheat [16]; [24]): 20
Oat, Wild plant response rating (oat, wild [17]; [23]): 0
Plant response rating, Oat, Wild (oat, wild [17]; [24]): 10
Plant response rating, Kochia (kochia [18]; [25]): 60
Plant response rating, Kochia (kochia [18]; [26]): 70
Ragweed plant response rating (ragweed [19]; [23]): 50
Plant response rating, Ragweed (ragweed [19]; [24]): 50
Foxtail, Giant plant response rating (foxtail, giant [20]; [23]): 10
Plant response rating, Foxtail, Giant (foxtail, giant [20]; [24]): 20
Ryegrass, Italian plant response rating (ryegrass, Italian [21]; [23]): 10
Plant response rating, Ryegrass, Italian (ryegrass, Italian [21]; [24]): 50
Kochia plant response rating (kochia [22]; [23]): 50
Plant response rating, Kochia (kochia [22]; [24]): 90
